Values of other authors, collected in patent publication US20050288338A1, “Amido compounds and their use as pharmaceuticals” (priority 2004, published 2005).

Biological target: T1, 11βHSD1 in the eye (Homo sapiens, UniProt P28845)
T1 construct: host or cells: eye of healthy human volunteers (in vivo)
Conditions: healthy volunteers, after seven days of carbenoxolone treatment

T1 sequence (P28845 whole entry): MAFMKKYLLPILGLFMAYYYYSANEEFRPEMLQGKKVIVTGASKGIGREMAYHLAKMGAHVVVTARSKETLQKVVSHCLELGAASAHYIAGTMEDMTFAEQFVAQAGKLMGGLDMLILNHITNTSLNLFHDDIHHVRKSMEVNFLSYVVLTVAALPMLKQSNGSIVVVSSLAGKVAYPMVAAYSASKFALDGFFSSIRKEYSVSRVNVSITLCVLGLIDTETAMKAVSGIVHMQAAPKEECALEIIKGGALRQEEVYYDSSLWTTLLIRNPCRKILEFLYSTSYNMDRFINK

In the case of `CC1(C)[C@@H](OC(=O)CCC(=O)O)CC[C@]2(C)[C@H]3C(=O)C=C4[C@@H]5C[C@@](C)(C(=O)O)CC[C@]5(C)CC[C@@]4(C)[C@]3(C)CC[C@@H]12` [carbenoxolone], the “IOP was reduced by” value is listed as 18%.
